Experimental data from US8980899B2, “Methods of inhibiting Ire1” (The Regents of the University of California, priority 2009, dated 2015).

Key:
yIre1 = biological target: T1, yIre1 (Saccharomyces cerevisiae, UniProt P32361); experiment: RNase cleavage assay (yIre1 activation); type: biochemical, yeast; details: yIre1 RNA cleavage, 30° C., 2 mM ADP; Control (no inhibitor) 0.000504
T1 sequence (P32361 19-1115): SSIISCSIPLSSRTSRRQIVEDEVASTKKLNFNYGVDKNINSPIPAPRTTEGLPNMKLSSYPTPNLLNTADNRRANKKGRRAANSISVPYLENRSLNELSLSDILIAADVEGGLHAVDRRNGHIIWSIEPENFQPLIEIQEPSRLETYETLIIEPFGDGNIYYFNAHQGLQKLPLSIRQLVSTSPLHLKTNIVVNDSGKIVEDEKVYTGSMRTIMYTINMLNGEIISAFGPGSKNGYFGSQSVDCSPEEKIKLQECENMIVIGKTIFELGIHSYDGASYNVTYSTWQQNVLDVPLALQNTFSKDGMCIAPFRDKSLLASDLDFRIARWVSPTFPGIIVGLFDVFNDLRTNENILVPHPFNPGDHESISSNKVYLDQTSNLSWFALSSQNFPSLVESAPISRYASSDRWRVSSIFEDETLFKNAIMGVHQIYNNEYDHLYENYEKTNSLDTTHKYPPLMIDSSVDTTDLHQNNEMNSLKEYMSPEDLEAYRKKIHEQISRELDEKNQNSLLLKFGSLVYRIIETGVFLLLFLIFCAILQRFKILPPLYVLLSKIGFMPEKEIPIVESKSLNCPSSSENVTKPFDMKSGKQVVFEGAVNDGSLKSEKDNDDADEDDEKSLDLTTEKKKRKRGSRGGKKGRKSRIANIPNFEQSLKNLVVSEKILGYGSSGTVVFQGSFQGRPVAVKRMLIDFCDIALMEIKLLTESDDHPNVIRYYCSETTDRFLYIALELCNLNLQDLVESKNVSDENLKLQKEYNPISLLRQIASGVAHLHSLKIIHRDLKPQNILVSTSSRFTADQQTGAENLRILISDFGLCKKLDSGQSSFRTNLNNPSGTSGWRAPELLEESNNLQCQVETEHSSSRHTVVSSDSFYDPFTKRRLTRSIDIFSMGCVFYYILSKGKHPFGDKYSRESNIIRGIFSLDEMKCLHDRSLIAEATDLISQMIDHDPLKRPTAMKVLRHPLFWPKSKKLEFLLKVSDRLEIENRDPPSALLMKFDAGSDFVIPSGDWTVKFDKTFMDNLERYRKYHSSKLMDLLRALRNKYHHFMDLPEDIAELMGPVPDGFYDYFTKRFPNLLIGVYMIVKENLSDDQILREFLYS
Procedure: RNA cleavage reactions were conducted at 30° C. in buffer containing 20 mM HEPES (pH 7.5), 70 mM NaCl, 2 mM ADP (pH 7.0), 2 mM Mg(OAc)2, 5 mM DTT, 5% glycerol, less than 1 nM ^32p-labeled RNA substrate, and 3 nM-[…] Ire1. Reaction solutions and buffers were designed using Biochem Lab Solutions 3.5. Reactions were prepared such that 1 μl of RNA was added to 9 μl of pre-warmed reaction mixture containing all components except RNA. Typically, 3-10 minute time courses were collected starting from 5 seconds for the first time point. At time intervals, 1 μl of solution was withdrawn from each reaction and mixed with 6 μl stop solution containing 10 M urea, 0.1% SDS, 0.1 mM EDTA, 0.05% xylene cyanol, and 0.05% bromophenol blue. The samples were separated by a denaturing 10% PAGE and exposed on a phosphor storage screen. The screens were scanned on a Storm or a Typhoon instrument and quantified using ImageQuant 5.0 or GelQuant.NET 1.4 programs. The data were plotted and fit in SigmaPlot 6.0.

[1] = biological target: Recombinant human Ire1-alpha (Homo sapiens, UniProt O75460); experiment: In vitro inhibition assay, cleavage of 32P-stem-loop RNA by human Ire1; type: biochemical; parameters: Ire1 activity with human Ire1 alpha: unit not given here; details: for Ire1 activity with human Ire1 alpha: RNA cleavage, 1 μM Ire1, 32P-labeled RNA, 30° C., Control (no inhibitor) 0.085; for Ire1 activity: in vitro cleavage of 32P-stem-loop RNA by human Ire1, AD series, Control (no inhibitor) 8.8310e−3
Procedure: Recombinant human […]) was mixed with reaction buffer, inhibitor solution in DMSO, and ^32P-labeled RNA substrate having sequence 5'-[…] NO:1). Reactions were conducted at 30° C. and initiated by adding the RNA to reaction pre-mix containing all the components minus the RNA. […] (The reaction mixture may be modified by using different components or concentrations, different RNA substrate, or different Ire1 protein construct.) At time intervals (0 seconds, 10 seconds, 30 seconds, and 3 minutes), 1 μl aliquots of reaction mixture were taken and quenched in 10 M Urea, 0.1% SDS. Samples were analyzed by denaturing polyacrylamide gel electrophoresis and quantified using Typhoon phosphorImager. […] Reactions with Irestatin and exemplary compounds were conducted analogously. Irestatin was a gift obtained from the SPECS screen available as 5 mM solution in DMSO at UCSF small molecule discovery center.

yeast Ire1 = biological target: T2, yeast Ire1 (Saccharomyces cerevisiae, UniProt P32361); experiment: In vitro inhibition assay, cleavage of 32P-labeled RNA by yeast Ire1; type: biochemical; details: for Ire1 activity with yeast Ire1: RNA cleavage, 32P-labeled RNA, 30° C., Control (no inhibitor) 0.1149
T2 sequence (P32361 19-1115): T1 sequence (P32361 19-1115)

hIre1 = hIre1 (Homo sapiens, UniProt O75460); experiment: Titrations of Ire1 inhibitors to measure Ki using 1 μM hIre1; type: biochemical; details: 1 μM hIre1, 5′-32p-HP21, 30° C.
Procedure: Recombinant human Ire1-alpha (1 μM f/c) was mixed with reaction buffer, inhibitor solution in DMSO, and ^32P-labeled RNA substrate having sequence 5′-UGCACCUCUGCAGCAGGUGCA (SEQ ID NO:1). Reactions were conducted at 30° C. and initiated by adding the RNA to reaction pre-mix containing all the components minus the RNA. The final reaction contained: 20 mM HEPES pH 7, 70 mM NaCl, 2 mM MgCl2, 5% glycerol, 4 mM DTT, 10% DMSO, 1 μM Ire1 and <1 nM 32P-labeled RNA. (The reaction mixture may be modified by using different components or concentrations, different RNA substrate, or different Ire1 protein construct.)
At time intervals (0 seconds, ˜10 seconds, ˜30 seconds, and ˜3 minutes), 1 μl aliquots of reaction mixture were taken and quenched in 10 M Urea, 0.1% SDS. Samples were analyzed by denaturing polyacrylamide gel electrophoresis and quantified using Typhoon phosphorImager.
Inhibition was measured by the extent of RNA cleavage slowdown in the presence of inhibitor (0.3-100 μM) compared to reaction containing no inhibitors.

Sequence of Recombinant human Ire1-alpha (O75460 19-977): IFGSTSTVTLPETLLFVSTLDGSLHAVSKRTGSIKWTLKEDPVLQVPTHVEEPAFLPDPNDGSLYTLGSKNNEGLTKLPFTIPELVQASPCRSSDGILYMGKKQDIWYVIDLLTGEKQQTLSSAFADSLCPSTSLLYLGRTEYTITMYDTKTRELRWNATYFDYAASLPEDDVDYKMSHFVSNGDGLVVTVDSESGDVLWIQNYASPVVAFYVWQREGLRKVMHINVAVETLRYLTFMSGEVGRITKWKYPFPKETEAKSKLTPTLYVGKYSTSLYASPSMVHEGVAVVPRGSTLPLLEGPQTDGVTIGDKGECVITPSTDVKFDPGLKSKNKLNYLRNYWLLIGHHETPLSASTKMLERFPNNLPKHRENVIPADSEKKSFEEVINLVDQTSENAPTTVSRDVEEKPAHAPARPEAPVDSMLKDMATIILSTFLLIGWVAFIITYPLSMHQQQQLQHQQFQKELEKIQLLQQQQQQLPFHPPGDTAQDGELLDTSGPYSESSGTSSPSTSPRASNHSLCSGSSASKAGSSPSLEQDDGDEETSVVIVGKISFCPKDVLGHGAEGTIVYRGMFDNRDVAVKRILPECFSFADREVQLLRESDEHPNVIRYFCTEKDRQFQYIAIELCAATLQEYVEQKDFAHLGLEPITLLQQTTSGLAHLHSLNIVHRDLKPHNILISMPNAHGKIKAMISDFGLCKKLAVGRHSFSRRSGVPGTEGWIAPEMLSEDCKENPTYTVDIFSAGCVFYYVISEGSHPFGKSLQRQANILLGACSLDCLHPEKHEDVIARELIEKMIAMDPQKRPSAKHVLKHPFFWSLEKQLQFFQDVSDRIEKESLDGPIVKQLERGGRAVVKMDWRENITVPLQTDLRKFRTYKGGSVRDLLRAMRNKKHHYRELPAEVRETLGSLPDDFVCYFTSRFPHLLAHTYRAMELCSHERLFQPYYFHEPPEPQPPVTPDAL
Sequence of hIre1 (O75460 19-977): as above

Ire1 activity with human Ire1 alpha [1]	Ire1 activity with yeast Ire1 (yeast Ire1)	Ire1 activity [1]	SMILES	also measured
0.09575	1.05E−03	–	CC(C)n1nc(Cc2cccc(NC(=O)Nc3cccc(C(F)(F)F)c3)c2)c2c(N)ncnc21 [AD36, 1-(3-((4-amino-1-isopropyl-1H-pyrazolo[3,4-d]pyrimidin-3-yl)methyl)phenyl)-3-(3-(trifluoromethyl)phenyl)urea]	Ire1 activity (yIre1): 0.000322
0.05508	3.26E−03	–	CC(C)n1nc(-c2ccc(NC(=O)Nc3cccc(C(F)(F)F)c3)cc2)c2c(N)ncnc21 [AD57, 1-(4-(4-amino-1-isopropyl-1H-pyrazolo[3,4-d]pyrimidin-3-yl)phenyl)-3-(3-(trifluoromethyl)phenyl)urea]	–
0.02258	2.42E−03	4.0180e−3	Nc1ncnc2c1c(-c1ccc(NC(=O)Nc3cccc(C(F)(F)F)c3)cc1)nn2C1CCCC1 [AD60, 1-(4-(4-amino-1-cyclopentyl-1H-pyrazolo[3,4-d]pyrimidin-3-yl)phenyl)-3-(3-(trifluoromethyl)phenyl)urea]	Ire1 activity (yIre1): 4.04E−05; inhibition of hIre1 (in words) [1]: can inhibit; inhibition of yIre1 (in words) (yeast Ire1): can inhibit
–	–	6.9280e−4	Nc1ncnc2c1c(-c1ccc(NC(=O)Nc3cccc(C(F)(F)F)c3)cc1)nn2CCCO [AD64]	Ki (hIre1): ~1 µM
–	–	–	Nc1ncnc2c1c(-c1ccc(NC(=O)c3cccc(C(F)(F)F)c3)cc1)nn2CCCO [AD65]	Ki (hIre1): ~30 µM
–	–	0.0107	Nc1ncnc2c1c(-c1ccc(NC(=O)Nc3cccc(C(F)(F)F)c3)cc1)nn2[C@H]1CCOC1 [AD66, 1-(4-(4-amino-1-((S)-tetrahydrofuran-3-yl)-1H-pyrazolo[3,4-d]pyrimidin-3-yl)phenyl)-3-(3-(trifluoromethyl)phenyl)urea]	–
–	–	0.0100	Nc1ncnc2c1c(-c1ccc(NC(=O)c3cccc(C(F)(F)F)c3)cc1)nn2[C@H]1CCOC1 [AD67, N-(4-(4-amino-1-((S)-tetrahydrofuran-3-yl)-1H-pyrazolo[3,4-d]pyrimidin-3-yl)phenyl)-3-(trifluoromethyl)benzamide]	–
–	–	8.4550e−3	Nc1ncnc2c1c(-c1ccc(NC(=O)c3cccc(C(F)(F)F)c3)cc1)nn2[C@@H]1CCOC1 [AD68, N-(4-(4-amino-1-((R)-tetrahydrofuran-3-yl)-1H-pyrazolo[3,4-d]pyrimidin-3-yl)phenyl)-3-(trifluoromethyl)benzamide]	–
–	–	0.0127	Nc1ncnc2c1c(-c1ccc(NC(=O)Nc3cccc(C(F)(F)F)c3)cc1)nn2[C@@H]1CCOC1 [AD69, 1-(4-(4-amino-1-((R)-tetrahydrofuran-3-yl)-1H-pyrazolo[3,4-d]pyrimidin-3-yl)phenyl)-3-(3-(trifluoromethyl)phenyl)urea]	–
–	–	9.0580e−3	Nc1ncnc2c1c(-c1ccc(NC(=O)c3cccc(C(F)(F)F)c3)cc1)nn2[C@H]1CCNC1 [AD70, N-(4-(4-amino-1-((S)-pyrrolidin-3-yl)-1H-pyrazolo[3,4-d]pyrimidin-3-yl)phenyl)-3-(trifluoromethyl)benzamide]	–
–	–	1.2650e−3	Nc1ncnc2c1c(-c1ccc(NC(=O)Nc3cccc(C(F)(F)F)c3)cc1)nn2[C@H]1CCN(C(=O)Nc2cccc(C(F)(F)F)c2)C1 [AD71c]	–
–	–	6.4950e−3	Nc1ncnc2c1c(-c1ccc(NC(=O)c3cccc(C(F)(F)F)c3)cc1)nn2[C@@H]1CCNC1 [AD72, N-(4-(4-amino-1-((R)-pyrrolidin-3-yl)-1H-pyrazolo[3,4-d]pyrimidin-3-yl)phenyl)-3-(trifluoromethyl)benzamide]	–
0.1247	5.00E−03	–	Nc1ncnc2c1c(Cc1cccc(NC(=O)c3cccc(C(F)(F)F)c3)c1)nn2Cc1ccccc1 [BB5, N-(3-((4-amino-1-benzyl-1H-pyrazolo[3,4-d]pyrimidin-3-yl)methyl)phenyl)-3-(trifluoromethyl)benzamide]	–
0.1506	3.00E−03	–	Nc1ncnc2c1c(Cc1cccc(NC(=O)Nc3cccc(C(F)(F)F)c3)c1)nn2Cc1ccccc1 [BB6, 1-(3-((4-amino-1-benzyl-1H-pyrazolo[3,4-d]pyrimidin-3-yl)methyl)phenyl)-3-(3-(trifluoromethyl)phenyl)urea]	–
0.03645	0.0683	–	CNC(=O)c1cc(Oc2ccc(NC(=O)Nc3ccc(Cl)c(C(F)(F)F)c3)cc2)ccn1 [Sorafenib, reference compound]	–
